Where no end group is shown, it is not given here.
Assays:
[1] = tested on: phosphorylated S6K and 4EBP1; assay: Immunoblot for mTOR pathway activation; format: cell-based, rat; details: 2 µM, 48 h, immunoblot normalized to actin
Description: (§1) All plates were incubated with PR20 for 48 h.
Once scanning of the nitrocellulose membranes probed for 4EBP1/P-4EBP1 and S6K/P-S6K had been completed, Restore Western Blot Stripping Buffer (Thermo Fisher Scientific) was used to strip the blot of antibodies. The membranes were washed twice in PBS-T for 10 min each and then placed in the stripping buffer for 22 min. The membranes were then washed twice once again in PBS-T for 10 min. They were then placed in blocking solution (5% w/v milk in PBS-T) for 45 min.

phosphorylated AMPK = assay: Immunoblot for mitochondrial dysfunction; format: cell-based, rat; details: 2 µM, 48 h, immunoblot normalized to actin
Description: as §1

[2] = tested on: KDEL-tagged chaperones BiP and PDI; assay: Immunoblot for ER stress; format: cell-based, rat; details: 2 µM, 48 h, immunoblot normalized to actin
Description: as §1

[3] = tested on: total ubiquitylated protein; assay: Ubiquitylation assay (total cellular ubiquitin immunoblot); format: cell-based, rat; details: 2 µM, 2, 4, 8, 16 h; significant at 2, 8 and 16 h
Description: The ubiquitylation assay involved acute time point treatments with PR20. 16 h prior to scheduled lysis, two dishes were treated to a final concentration of 2 μM PR20 using the methods described in the PR20 treatment for biochemical assays subsection. This was repeated 8 h prior to lysis, 4 h prior to lysis, and 2 h prior to lysis. Samples were then lysed in RIPA buffer as described in Cell lysis for ubiquitin blots and processed for Western blot analysis.
(§2) Ubiquitin analysis requires the use of deubiquitinase (DUB) inhibitors. Lysis without these inhibitors runs the risk of degradation of the substrates to be targeted. As such, N-ethylmaleimide (Sigma), a potent DUB inhibitor, was used in the lysis buffer. […] The remainder of the lysis procedure follows Cell lysis.

[4] = tested on: ubiquitin-proteasome system; assay: MG-132 flux assay (flux of ubiquitylated substrates through the UPS); format: cell-based, rat
Description: MG-132 (Sigma) was used to inhibit proteasomal function. Cells were initially treated with PR20 for a total of 48 h using the method outlined in PR20 treatment for biochemical assays. Four hours prior to lysis, these cells were treated with MG-132 or vehicle. The MG-132 was kept in a stock solution in DMSO. This was added directly to culture to achieve a final concentration of 5 μM. Cells were then lysed in RIPA buffer and immunoblotted for ubiquitin.
as §2
To test for group differences in the flux assay, a permutation test was used. This is a nonparametric statistical test that was implemented in MATLAB. […] The test first quantifies this by taking the average of each experimental group and then finding the difference of ratios. It then permutes two samples located in two groups randomly, and determines that difference between averages again. This is repeated 50,000 times, and a histogram is plotted. This histogram represents the distribution of random noise in the sample. Since a higher difference in the +MG132/−MG132 ratio is a more “significant” result, the percentage of the random noise produced from 50,000 permutations that is higher in magnitude than the true difference (calculated from un-permuted data) is the p value.
Permutations of a data point in a +MG132 into a group labeled −MG132 (or vice versa) were not allowed. […] Thus, this group difference was not interesting to us.

Dendra2-LC3 = assay: Autophagic flux assay, optical pulse labeling of Dendra2-LC3; format: cell-based, rat; details: 2 µM peptide, primary spinal neurons, single-cell optical pulse labeling
Description: Primary spinal neurons were dissected from E15 rat pups and cultured at a density of 2.5 × 10^5 cells/ml on a laminin/poly-lysine-coated 96-well plate in motor neuron media. Four days after plating, neurons were transfected with Lipofectamine 2000 (Invitrogen). DNA-Lipofectamine mixtures were incubated with neurons for 20 min followed by rinsing. Neurons were then placed in 100 µL of conditioned media that was collected immediately prior to transfection and half fresh motor neuron media containing 4 µM PR20, resulting in a final concentration of 2 µM PR20.
Optical pulse labeling experiments were performed using an automated microscopy platform previously described by [Arrasate et al. (2004)] and [Barmada et al. (2014)]. A Nikon Eclipse Ti inverted microscope equipped with a PerfectFocus system, 20× objective lens and an Andor iXon3 897 EMCCD camera were used to acquire images. Samples were illuminated with a Sutter Instruments Lamba XL lamp. The microscope and related components were encased in custom-built plexiglass enclosure set to maintain the temperature at 37°C and CO2 at 5%. Semrock GFP and TRITC filters were used for excitation and detection. A Semrock 405-nm long-pass filter was used for photoactivation. Image acquisition and stage movements were accomplished in an automated fashion using µManager and original code written in BeanShell. For all experiments, photoconversion occurred 24 h following transfection. GFP and TRITC images were acquired immediately following activation and subsequently every 2 h for 12 h. Images were acquired in a similar 12-h window starting 48 h after PR20 treatment. Using in-house image analysis scripts, neuronal cell bodies were identified based on their fluorescent intensity and morphology, and a ROI was drawn around the perimeter of each cell at each time. Single-cell TRITC intensity values were recorded and used to fit a first order exponential decay curve for individual neurons and calculate a Dendra2-light chain 3 (LC3) half-life for each cell. […]

[5] = tested on: U2OS cells and human astrocytes; details: depending on the specific assay; ref Kwon et al., 2014; cited from earlier work
Excerpt: The difficulty of distinguishing between toxic HRE mRNA and DPR proteins has impeded our understanding of the mechanism underlying C9ORF72 HRE pathophysiology. As reported in Science ([Kwon et al., 2014]), the McKnight lab devised a strategy to overcome this problem: they studied U2OS cells and human astrocytes directly exposed to synthetic DPR proteins. […] We built upon this approa ...

human astrocytes = details: DPR applied repeatedly; ref Kwon et al. (2014); cited from earlier work
Excerpt: We draw a number of conclusions from these experiments.

PRPRPRPRPRPRPRPRPRPRPRPRPRPRPRPRPRPRPRPRYPYDVPDYA [PR20]
activation level of the mTOR pathway versus vehicle [1]: no statistically significant differences | mitochondrial dysfunction (phosphorylated AMPK) versus vehicle (phosphorylated AMPK): no statistically significant differences | ER stress (BiP and PDI abundance) versus vehicle [2]: no statistically significant differences | total ubiquitylated protein levels over time [3]: progressive increase | proteasomal flux versus vehicle after 2 h of exposure ([4]; 2 h PR20, ±MG132, n = 6 per group, p = 0.38): no statistically significance | proteasomal flux (difference in ubiquitin +/- MG-132) versus vehicle ([4]; peptide 48 h (PR20 2 µM), then MG-132 5 µM or vehicle 4 h, permutation test): reduced | extension of Dendra2-LC3 half-life compared with control (Dendra2-LC3): ~5.6 h | toxic concentration range [5]: 10 to 30 µM | LD50 that kills human astrocytes (human astrocytes): 8.4 µM
